# Tests used:
# Angiopoietin-1 receptor [1] = target: T1, Angiopoietin-1 receptor (Homo sapiens, UniProt Q02763); test: Inhibition of Tie2 by HTRF assay
# [2] = target: Vascular endothelial growth factor receptor 2 (Homo sapiens, UniProt P35968)
# Description: Inhibition of KDR by HTRF assay
# Angiopoietin-1 receptor [3] = target: T1, Angiopoietin-1 receptor; test: Inhibition of angiopoietin-1-stimulated Tie2 phosphorylation in EA.hy926 cells; type: functional, cell-based
# [4] = Clearance in iv dosed rat; type: ADME, organism-based; settings: in vivo
# [5] = target: Vascular endothelial growth factor receptor 2 and tyrosine-protein kinase TIE-2 (KDR and TIE2) (Homo sapiens) (UniProt P35968+Q02763); test: Selectivity for Tie2 over KDR; type: protein assay
# Chain of Vascular endothelial growth factor receptor 2 and tyrosine-protein kinase TIE-2 (KDR and TIE2) (Homo sapiens) (P35968 whole entry, looked up): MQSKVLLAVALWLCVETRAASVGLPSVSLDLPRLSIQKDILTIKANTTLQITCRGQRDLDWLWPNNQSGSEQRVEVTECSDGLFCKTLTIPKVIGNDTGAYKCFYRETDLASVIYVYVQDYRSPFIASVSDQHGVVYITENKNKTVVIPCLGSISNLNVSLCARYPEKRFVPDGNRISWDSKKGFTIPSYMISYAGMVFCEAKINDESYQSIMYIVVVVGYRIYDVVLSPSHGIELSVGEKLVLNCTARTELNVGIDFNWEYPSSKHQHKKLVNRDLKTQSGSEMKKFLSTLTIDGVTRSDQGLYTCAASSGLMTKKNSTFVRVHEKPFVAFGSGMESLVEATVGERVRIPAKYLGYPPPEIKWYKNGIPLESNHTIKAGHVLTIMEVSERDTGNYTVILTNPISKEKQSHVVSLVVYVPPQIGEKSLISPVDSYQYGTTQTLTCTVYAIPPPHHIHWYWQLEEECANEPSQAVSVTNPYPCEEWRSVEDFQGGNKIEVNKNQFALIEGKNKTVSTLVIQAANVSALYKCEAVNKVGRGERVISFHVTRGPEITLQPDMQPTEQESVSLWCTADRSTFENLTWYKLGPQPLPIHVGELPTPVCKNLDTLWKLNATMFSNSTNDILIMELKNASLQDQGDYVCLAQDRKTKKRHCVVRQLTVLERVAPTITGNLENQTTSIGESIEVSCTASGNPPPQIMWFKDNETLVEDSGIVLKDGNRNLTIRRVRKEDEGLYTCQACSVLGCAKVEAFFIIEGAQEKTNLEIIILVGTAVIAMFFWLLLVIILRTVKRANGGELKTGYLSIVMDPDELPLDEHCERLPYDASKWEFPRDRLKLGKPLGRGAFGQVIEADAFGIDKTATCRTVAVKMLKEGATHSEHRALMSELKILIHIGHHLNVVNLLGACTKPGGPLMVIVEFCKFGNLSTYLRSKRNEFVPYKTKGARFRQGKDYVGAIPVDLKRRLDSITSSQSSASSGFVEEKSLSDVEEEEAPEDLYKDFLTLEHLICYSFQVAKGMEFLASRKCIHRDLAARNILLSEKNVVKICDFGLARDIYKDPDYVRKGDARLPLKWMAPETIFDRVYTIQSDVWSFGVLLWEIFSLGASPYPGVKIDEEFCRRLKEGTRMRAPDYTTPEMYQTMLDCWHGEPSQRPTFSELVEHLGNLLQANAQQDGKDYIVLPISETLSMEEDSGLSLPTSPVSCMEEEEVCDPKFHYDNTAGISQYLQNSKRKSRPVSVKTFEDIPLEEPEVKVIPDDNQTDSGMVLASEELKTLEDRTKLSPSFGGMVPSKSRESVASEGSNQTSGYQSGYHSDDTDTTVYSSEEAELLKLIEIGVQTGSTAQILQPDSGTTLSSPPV
# Chain of Vascular endothelial growth factor receptor 2 and tyrosine-protein kinase TIE-2 (KDR and TIE2) (Homo sapiens) (Q02763 whole entry, looked up): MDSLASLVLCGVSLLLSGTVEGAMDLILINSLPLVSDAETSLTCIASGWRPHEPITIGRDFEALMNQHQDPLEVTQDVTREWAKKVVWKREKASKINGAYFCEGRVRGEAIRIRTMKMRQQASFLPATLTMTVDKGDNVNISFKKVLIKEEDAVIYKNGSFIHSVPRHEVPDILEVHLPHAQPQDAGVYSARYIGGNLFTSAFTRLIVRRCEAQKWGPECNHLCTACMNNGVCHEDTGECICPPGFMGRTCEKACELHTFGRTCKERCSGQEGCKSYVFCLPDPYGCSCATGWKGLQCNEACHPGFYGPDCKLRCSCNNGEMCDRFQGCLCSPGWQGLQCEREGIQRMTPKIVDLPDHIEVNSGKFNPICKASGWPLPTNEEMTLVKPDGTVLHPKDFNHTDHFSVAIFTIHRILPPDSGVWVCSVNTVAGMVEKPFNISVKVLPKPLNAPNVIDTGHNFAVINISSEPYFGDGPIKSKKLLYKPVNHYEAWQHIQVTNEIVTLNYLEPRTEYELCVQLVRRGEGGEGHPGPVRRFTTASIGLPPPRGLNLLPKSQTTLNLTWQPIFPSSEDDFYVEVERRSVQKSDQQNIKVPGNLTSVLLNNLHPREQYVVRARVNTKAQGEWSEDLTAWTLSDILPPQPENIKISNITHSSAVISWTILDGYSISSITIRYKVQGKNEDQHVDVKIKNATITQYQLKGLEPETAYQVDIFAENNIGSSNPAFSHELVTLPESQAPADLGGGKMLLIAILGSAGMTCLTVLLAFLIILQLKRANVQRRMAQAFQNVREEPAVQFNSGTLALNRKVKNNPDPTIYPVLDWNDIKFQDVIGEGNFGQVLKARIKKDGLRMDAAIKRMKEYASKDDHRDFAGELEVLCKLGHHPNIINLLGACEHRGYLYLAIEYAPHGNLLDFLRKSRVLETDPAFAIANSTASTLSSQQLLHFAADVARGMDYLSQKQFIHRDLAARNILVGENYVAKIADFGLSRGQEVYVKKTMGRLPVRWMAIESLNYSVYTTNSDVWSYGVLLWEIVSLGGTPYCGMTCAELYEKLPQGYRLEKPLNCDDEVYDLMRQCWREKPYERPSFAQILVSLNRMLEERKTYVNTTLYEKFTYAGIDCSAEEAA
# Ephrin type-B receptor 4 = Ephrin type-B receptor 4 (Homo sapiens, UniProt P54760); test: Inhibition of EPHB4
# [6] = target: Proto-oncogene tyrosine-protein kinase Src (Homo sapiens, UniProt P12931); test: inhibition of Src
# Chain of Proto-oncogene tyrosine-protein kinase Src (P12931 2-536 limits assumed): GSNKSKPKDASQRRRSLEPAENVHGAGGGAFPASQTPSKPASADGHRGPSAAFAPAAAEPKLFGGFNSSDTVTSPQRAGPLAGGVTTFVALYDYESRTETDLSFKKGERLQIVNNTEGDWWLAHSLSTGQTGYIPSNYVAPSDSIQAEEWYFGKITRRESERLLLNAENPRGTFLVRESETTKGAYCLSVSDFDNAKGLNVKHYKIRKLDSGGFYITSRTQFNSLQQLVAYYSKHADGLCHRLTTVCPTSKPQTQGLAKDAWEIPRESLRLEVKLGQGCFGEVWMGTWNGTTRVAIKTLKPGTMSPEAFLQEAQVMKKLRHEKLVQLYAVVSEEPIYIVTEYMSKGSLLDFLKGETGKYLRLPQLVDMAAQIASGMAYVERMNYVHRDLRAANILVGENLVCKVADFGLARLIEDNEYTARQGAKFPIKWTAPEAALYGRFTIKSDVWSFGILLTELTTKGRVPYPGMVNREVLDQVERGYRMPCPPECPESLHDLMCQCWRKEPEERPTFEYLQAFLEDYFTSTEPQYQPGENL
# [7] = target: Tyrosine-protein kinase Lyn (Homo sapiens, UniProt P07948); test: Inhibition of Lyn
# Chain of Tyrosine-protein kinase Lyn (P07948 whole entry): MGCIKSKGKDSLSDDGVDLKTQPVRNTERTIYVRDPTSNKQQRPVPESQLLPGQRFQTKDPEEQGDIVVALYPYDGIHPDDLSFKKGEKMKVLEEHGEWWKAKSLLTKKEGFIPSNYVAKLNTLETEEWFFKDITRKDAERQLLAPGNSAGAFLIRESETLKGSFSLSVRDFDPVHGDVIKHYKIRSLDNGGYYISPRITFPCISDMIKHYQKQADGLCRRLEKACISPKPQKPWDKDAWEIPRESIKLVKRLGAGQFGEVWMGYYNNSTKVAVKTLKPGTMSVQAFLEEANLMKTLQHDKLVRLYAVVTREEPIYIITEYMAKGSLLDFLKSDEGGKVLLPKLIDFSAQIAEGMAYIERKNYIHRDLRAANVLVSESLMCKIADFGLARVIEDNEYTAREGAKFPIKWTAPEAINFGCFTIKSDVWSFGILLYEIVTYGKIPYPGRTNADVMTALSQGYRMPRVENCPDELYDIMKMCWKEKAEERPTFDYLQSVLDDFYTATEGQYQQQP
# [8] = target: Mitogen-activated protein kinase 14 (Homo sapiens, UniProt Q16539); test: Inhibition of p38alpha
# Chain of Mitogen-activated protein kinase 14 (Q16539 whole entry): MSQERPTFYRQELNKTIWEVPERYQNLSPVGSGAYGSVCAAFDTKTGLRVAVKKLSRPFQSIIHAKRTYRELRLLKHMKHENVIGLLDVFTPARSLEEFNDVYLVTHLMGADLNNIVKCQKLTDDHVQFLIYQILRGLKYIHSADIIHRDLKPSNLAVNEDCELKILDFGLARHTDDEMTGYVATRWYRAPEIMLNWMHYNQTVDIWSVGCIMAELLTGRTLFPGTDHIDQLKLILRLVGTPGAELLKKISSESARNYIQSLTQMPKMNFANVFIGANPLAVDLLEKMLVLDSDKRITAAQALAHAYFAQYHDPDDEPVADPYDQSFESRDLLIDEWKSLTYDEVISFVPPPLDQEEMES
# [9] = target: Mast/stem cell growth factor receptor Kit (Homo sapiens, UniProt P10721); test: Inhibition of cKit
# [10] = Solubility in 0.01N HCl; type: physicochemical
# [11] = target: High affinity nerve growth factor receptor (Homo sapiens, UniProt P04629); test: Inhibition of TrkA
# [12] = target: Platelet-derived growth factor receptor beta (Homo sapiens, UniProt P09619); test: Inhibition of PDGFR
# [13] = target: Macrophage colony-stimulating factor 1 receptor (Homo sapiens, UniProt P07333); test: Inhibition of c-fms
# [14] = target: Proto-oncogene tyrosine-protein kinase receptor Ret (Homo sapiens, UniProt P07949); test: Inhibition of RET
# [15] = target: Insulin-like growth factor 1 receptor (Homo sapiens, UniProt P08069); test: Inhibition of IGFR1
# [16] = target: Tyrosine-protein kinase SYK (Homo sapiens, UniProt P43405); test: Inhibition of SYK
# [17] = target: Tyrosine-protein kinase ZAP-70 (Homo sapiens, UniProt P43403); test: Inhibition of ZAP70
# [18] = target: Tyrosine-protein kinase JAK3 (Homo sapiens, UniProt P52333); test: Inhibition of Jak3
# [19] = target: Tyrosine-protein kinase CSK (Homo sapiens, UniProt P41240); test: Inhibition of CSK
# [20] = target: Tyrosine-protein kinase Lck (Homo sapiens, UniProt P06239); test: Inhibition of Lck
# [21] = target: Tyrosine-protein kinase Fgr (Homo sapiens, UniProt P09769); test: Inhibition of Fgr
# [22] = target: Tyrosine-protein kinase ABL1 (Homo sapiens, UniProt P00519); test: Inhibition of Abl
# [23] = target: Tyrosine-protein kinase ITK/TSK (Homo sapiens, UniProt Q08881); test: Inhibition of Itk
# [24] = target: Mitogen-activated protein kinase 10 (Homo sapiens, UniProt P53779); test: inhibition of JNK3
# [25] = target: Cyclin-dependent kinase 5 (Homo sapiens, UniProt Q00535); test: Inhibition of CDK5
# Aurora kinase A = Aurora kinase A (Homo sapiens, UniProt O14965); test: Inhibition of AurA
# [26] = target: RAC-alpha serine/threonine-protein kinase (Homo sapiens, UniProt P31749); test: Inhibition of PKBalpha
# [27] = Half life in Sprague-Dawley rat at 1 mg/kg, iv; type: ADME, organism-based; parameters: dose 1 mg/kg, route intravenous; settings: in vivo
# [28] = Clearance in Sprague-Dawley rat at 1 mg/kg, iv; type: ADME, organism-based; parameters: dose 1 mg/kg, route intravenous; settings: in vivo
# [29] = Volume of distribution in Sprague-Dawley rat at 1 mg/kg, iv; type: ADME, organism-based; parameters: dose 1 mg/kg, route intravenous; settings: in vivo, read-out: Vss
# [30] = Oral bioavailability in Sprague-Dawley rat at 10 mg/kg, po; type: ADME, organism-based; settings: in vivo
# [31] = Cmax in Sprague-Dawley rat at 10 mg/kg, po; type: ADME, organism-based; parameters: dose 10 mg/kg, route oral; settings: in vivo
# [32] = AUC (0-infinity) in Sprague-Dawley rat at 10 mg/kg, po; type: ADME, organism-based; parameters: time infinity, dose 10 mg/kg, route oral; settings: plasma
# [33] = Plasma protein binding in rat; type: ADME, cell-free; settings: read-out: PPB (converted)
# [34] = Plasma protein binding in mouse; type: ADME, cell-free; settings: read-out: PPB (converted)
# [35] = Plasma concentration in CD1 NU/NU mouse at 100 mg/kg after 3 hrs; type: ADME, organism-based; parameters: dose 100 mg/kg
# [36] = target: Angiopoietin-1 receptor (Mus musculus) (UniProt Q02858); test: Inhibition of angiopoietin-1-induced Tie2 phosphorylation in CD1 NU/NU mouse at 100 mg/kg after 3 hrs; type: functional, organism-based; parameters: dose 100 mg/kg
# Chain of Angiopoietin-1 receptor (Mus musculus) (Q02858 whole entry): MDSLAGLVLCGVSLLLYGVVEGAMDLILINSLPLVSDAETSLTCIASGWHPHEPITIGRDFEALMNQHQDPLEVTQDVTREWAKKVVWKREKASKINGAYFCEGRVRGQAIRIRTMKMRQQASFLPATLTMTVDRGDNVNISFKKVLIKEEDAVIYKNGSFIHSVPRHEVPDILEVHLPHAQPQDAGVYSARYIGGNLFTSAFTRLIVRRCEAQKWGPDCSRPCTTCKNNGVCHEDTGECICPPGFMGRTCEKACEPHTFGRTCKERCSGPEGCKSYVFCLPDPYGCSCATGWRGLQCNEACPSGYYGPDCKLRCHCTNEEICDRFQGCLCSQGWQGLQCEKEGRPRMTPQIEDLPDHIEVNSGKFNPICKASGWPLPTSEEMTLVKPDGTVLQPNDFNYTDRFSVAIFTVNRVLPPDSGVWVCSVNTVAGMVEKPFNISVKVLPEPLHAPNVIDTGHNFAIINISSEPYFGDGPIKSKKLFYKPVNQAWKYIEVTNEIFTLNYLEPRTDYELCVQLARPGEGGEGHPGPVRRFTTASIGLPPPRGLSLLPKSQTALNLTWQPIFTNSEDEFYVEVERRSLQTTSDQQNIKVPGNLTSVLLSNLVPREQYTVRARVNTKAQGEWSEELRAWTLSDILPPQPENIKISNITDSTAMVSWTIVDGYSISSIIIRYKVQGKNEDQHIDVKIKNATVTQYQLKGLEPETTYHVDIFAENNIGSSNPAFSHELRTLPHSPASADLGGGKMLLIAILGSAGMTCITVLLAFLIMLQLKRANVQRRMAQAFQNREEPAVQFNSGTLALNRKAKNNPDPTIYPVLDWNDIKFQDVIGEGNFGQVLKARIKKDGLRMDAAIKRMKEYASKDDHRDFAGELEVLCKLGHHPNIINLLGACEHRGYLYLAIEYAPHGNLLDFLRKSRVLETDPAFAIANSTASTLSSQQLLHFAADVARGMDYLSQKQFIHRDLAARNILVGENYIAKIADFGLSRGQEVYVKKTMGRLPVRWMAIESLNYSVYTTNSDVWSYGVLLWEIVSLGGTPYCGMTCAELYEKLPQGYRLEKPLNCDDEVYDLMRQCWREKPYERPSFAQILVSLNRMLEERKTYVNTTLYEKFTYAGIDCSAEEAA
# [37] = target: Angiopoietin-1 receptor (Mus musculus) (UniProt Q02858); test: Inhibition of angiopoietin-1-induced Tie2 phosphorylation in CD1 NU/NU mouse at 100 mg/kg after 8 hrs; type: functional, organism-based; parameters: dose 100 mg/kg
# [38] = Plasma concentration in CD1 NU/NU mouse at 100 mg/kg after 8 hrs; type: ADME, organism-based; parameters: dose 100 mg/kg
# [39] = Plasma concentration in CD1 NU/NU mouse at 100 mg/kg after 12 hrs; type: ADME, organism-based; parameters: dose 100 mg/kg
# [40] = Tmax in Sprague-Dawley rat at 10 mg/kg, po; type: ADME, organism-based; parameters: dose 10 mg/kg, route oral; settings: in vivo
# [41] = Dissociation constant, pKa of the compound; type: physicochemical
# [42] = Solubility in simulated intestinal fluid at pH 6.8; type: physicochemical
# [43] = Solubility in phosphate buffer at pH 7.0; type: physicochemical
# [44] = Mean residence time in rat; type: ADME, organism-based; settings: in vivo
# Chain of Vascular endothelial growth factor receptor 2 (P35968 whole entry): as the sequence (P35968 whole entry, looked up) above
# T1 sequence (Q02763 whole entry): as the sequence (Q02763 whole entry, looked up) above
smiles,measurement,setting,value
COc1cc(Nc2ncnc(-c3cccnc3Nc3cccc(C(=O)Nc4ccc(Oc5ccccc5)cc4)c3)n2)cc(OC)c1OC,IC50,Angiopoietin-1 receptor [1],0.085 µM
same,IC50,[2],0.038 µM
COc1ccc(C(F)(F)F)cc1NC(=O)c1ccc(C)c(Oc2ncccc2-c2ccncn2)c1,IC50,[2],0.1 µM
CNc1ncnc(-c2cccnc2Oc2ccc(F)c(C(=O)Nc3cc(C(F)(F)F)ccc3N3CCCCC3)c2)n1,IC50,[2],> 25 µM
CNc1ncnc(-c2cccnc2Oc2ccc(F)c(C(=O)Nc3cc(C4CC4)ccc3N(C)CCCN(C)C)c2)n1,IC50,Angiopoietin-1 receptor [1],0.013 µM
same,IC50,Angiopoietin-1 receptor [3],0.039 µM
same,clearance,[4],45.5 mL/min/kg
same,IC50,[2],> 25 µM
CNc1cc(-c2cccnc2Oc2cc(C(=O)Nc3cc(C4CCCCC4)ccc3OC)ccc2C)ccn1,clearance,[4],98.3 mL/min/kg
same,IC50,[2],> 25 µM
CNc1nccc(-c2cc(C)cnc2Oc2cccc(C(=O)Nc3cc(C(F)(F)F)ccc3N3CCCCC3)c2C)n1,IC50,Angiopoietin-1 receptor [1],0.388 µM
same,IC50,[2],2.6 µM
CNc1nccc(-c2cccnc2Oc2cccc(C(=O)Nc3cc(C(F)(F)F)ccc3N3CCCCC3)c2)n1,IC50,Angiopoietin-1 receptor [1],0.099 µM
same,IC50,Angiopoietin-1 receptor [3],0.368 µM
same,clearance,[4],54 mL/min/kg
same,IC50,[2],> 8 µM
Cc1ccc(C(=O)Nc2cc(C(F)(F)F)ccc2N2CCCCC2)cc1Nc1ncccc1-c1ccncn1,IC50,Angiopoietin-1 receptor [1],0.181 µM
same,Selectivity ratio,[5],> 100
same,IC50,[2],> 25 µM
Cc1ccc(C(=O)Nc2cccc(C(F)(F)F)c2)cc1Nc1ncccc1-c1ccncn1,IC50,Ephrin type-B receptor 4,< 0.025 µM
same,IC50,[6],< 0.025 µM
same,IC50,[7],< 0.025 µM
same,IC50,[8],< 0.025 µM
same,IC50,[9],< 0.025 µM
same,IC50,[2],0.004 µM
Cc1ccc(C(=O)Nc2ccc(C(F)(F)F)cc2)cc1Oc1ncccc1-c1ccncn1,solubility,[10],5 µg/mL
same,IC50,[2],0.705 µM
CNc1ncnc(-c2cccnc2Oc2ccc(F)c(C(=O)Nc3cc(C(F)(F)F)ccc3N(C)CCCN(C)C)c2)n1,IC50,[11],8.3 µM
same,IC50,Angiopoietin-1 receptor [1],0.03 µM
same,IC50,Angiopoietin-1 receptor [3],0.062 µM
same,clearance,[4],21.7 mL/min/kg
same,IC50,[12],1.94 µM
same,IC50,[13],25 µM
same,IC50,[14],8.3 µM
same,IC50,[15],0.927 µM
same,IC50,Ephrin type-B receptor 4,8.3 µM
same,IC50,[16],25 µM
same,IC50,[17],25 µM
same,IC50,[18],25 µM
same,IC50,[19],25 µM
same,IC50,[6],5.75 µM
same,IC50,[20],1.1 µM
same,IC50,[7],4.9 µM
same,IC50,[21],8.3 µM
same,IC50,[22],1.28 µM
same,IC50,[23],25 µM
same,IC50,[8],3.7 µM
same,IC50,[24],40 µM
same,IC50,[25],100 µM
same,IC50,Aurora kinase A,25 µM
same,IC50,[26],100 µM
same,half-life,[27],1.6 h
same,clearance,[28],21.7 mL/min/kg
same,Vd,[29],2.56 L/kg
same,bioavailability,[30],31%
same,Cmax,[31],520 ng/mL
same,AUC(0-inf),[32],2640 ng·h/mL
same,fraction unbound,[33],0.07
same,fraction unbound,[34],0.02
same,concentration at 3 h,[35],3.97 µM
same,inhibition,[36],94%
same,inhibition,[37],25%
same,concentration at 8 h,[38],3.03 µM
same,concentration at 12 h,[39],1.59 µM
same,Tmax,[40],2 h
same,pKa,[41],9.5
same,solubility,[10],1320 µg/mL
same,solubility,[42],340 µg/mL
same,solubility,[43],44 µg/mL
same,IC50,[2],7.8 µM
CNc1ncnc(-c2cccnc2Oc2ccc(F)c(C(=O)Nc3cc(C(C)C)ccc3N(C)CCCN(C)C)c2)n1,clearance,[4],70 mL/min/kg
same,IC50,[2],> 8 µM
Cc1ccc(C(=O)Nc2ccccc2)cc1Nc1ncccc1-c1ccncn1,IC50,[2],0.435 µM
CNc1nccc(-c2cccnc2Oc2ccc(F)c(C(=O)Nc3cc(C(F)(F)F)ccc3N3CCCCC3)c2)n1,IC50,Angiopoietin-1 receptor [1],0.04 µM
same,IC50,Angiopoietin-1 receptor [3],0.244 µM
same,clearance,[4],5.67 mL/min/kg
same,Selectivity ratio,[5],> 500
same,bioavailability,[30],0.3%
same,IC50,[2],> 25 µM
CNc1ncnc(-c2cccnc2Oc2cc(C(=O)Nc3cc(C(F)(F)F)ccc3N(C)CCCN(C)C)ccc2C)n1,IC50,Angiopoietin-1 receptor [1],0.059 µM
same,IC50,Angiopoietin-1 receptor [3],0.14 µM
same,clearance,[4],15.3 mL/min/kg
same,IC50,[2],4 µM
CNc1ncnc(-c2cccnc2Oc2cc(C(=O)Nc3cc(C4CCCCC4)ccc3OC)ccc2C)n1,IC50,Angiopoietin-1 receptor [1],0.022 µM
same,IC50,Angiopoietin-1 receptor [3],0.061 µM
same,clearance,[4],12.8 mL/min/kg
same,MRT,[44],0.47 h
same,IC50,[2],> 25 µM
COc1ccc(C2CCCCC2)cc1NC(=O)c1ccc(C)c(Oc2ncccc2-c2ccnc3ccccc23)c1,IC50,Angiopoietin-1 receptor [1],> 25 µM
same,IC50,[2],> 25 µM
O=C(Nc1ccc(Oc2ccccc2)cc1)c1cccnc1NCc1ccncc1,IC50,Angiopoietin-1 receptor [1],≥ 25 µM
CNc1nccc(-c2cccnc2Oc2cc(C(=O)Nc3cc(C(F)(F)F)ccc3N3CCCCC3)ccc2Cl)n1,clearance,[4],21.6 mL/min/kg
same,IC50,[2],0.675 µM
COc1ccc(C2CCCCC2)cc1NC(=O)c1ccc(C)c(Oc2ncccc2-c2ncnc3cc(OC)c(OC)cc23)c1,IC50,Angiopoietin-1 receptor [1],> 25 µM
same,IC50,[2],> 25 µM
CNc1nccc(-c2cccnc2Oc2cc(C(=O)Nc3cc(C(F)(F)F)ccc3N3CCCCC3)ccc2F)n1,clearance,[4],25.6 mL/min/kg
same,IC50,[2],2 µM
Cc1ccc(C(=O)Nc2ccc(C(F)(F)F)cc2)cc1Nc1ncccc1-c1ccncn1,IC50,Angiopoietin-1 receptor [1],0.504 µM
same,solubility,[10],1 µg/mL
same,IC50,[2],0.177 µM
CNc1nccc(-c2cccnc2Oc2cc(C(=O)Nc3cc(C(F)(F)F)ccc3N3CCOCC3)ccc2C)n1,IC50,[2],0.31 µM
Cc1ccc(C(=O)Nc2cccc(C(F)(F)F)c2)cc1Oc1ncccc1-c1ccncn1,IC50,[2],0.059 µM
CNc1nccc(-c2cccnc2Oc2cc(C(=O)Nc3cc(C(F)(F)F)ccc3N3CCCCC3)ccc2C)n1,IC50,[2],0.461 µM
CNc1nccc(-c2cccnc2Oc2cc(C(=O)Nc3cc(C4CCCCC4)ccc3OC)ccc2C)n1,clearance,[4],58.2 mL/min/kg
same,IC50,[2],0.07 µM
Cc1ccc(C(=O)Nc2cc(C(F)(F)F)ccc2N2CCOCC2)cc1Oc1ncccc1-c1ccncn1,IC50,[2],> 25 µM
CNc1ncnc(-c2cccnc2Oc2cc(C(=O)Nc3cccc(C(F)(F)F)c3)ccc2C)n1,IC50,Angiopoietin-1 receptor [1],0.01 µM
same,IC50,Angiopoietin-1 receptor [3],0.038 µM
same,IC50,[2],0.097 µM
CNc1nccc(-c2cccnc2Oc2ccc(F)c(C(=O)Nc3cc(C(F)(F)F)ccc3N(C)CCCN(C)C)c2)n1,clearance,[4],12 mL/min/kg
same,bioavailability,[30],32%
same,IC50,[2],0.046 µM
Cc1ccc(C(=O)Nc2cc(C(F)(F)F)ccc2N2CCCCC2)cc1Oc1ncccc1-c1ccncn1,IC50,[2],1.3 µM
COc1ccc(C(F)(F)F)cc1NC(=O)c1ccc(C)c(Nc2ncccc2-c2ccncn2)c1,IC50,[2],0.058 µM
